# According to ChEMBL document CHEMBL1857833, “Screening and optimization of specific chemical series against human African Trypanosomiasis (HAT)”:
# Where “and” joins values, the source holds several entries; their conditions need not be identical. Equal values may be shown once.
# Experiments:
# [1] = DNDI: Cytotoxicity against L929 mouse fibroblasts, 72 hour.; format: toxicity, cell-based; conditions: mouse, L929 mouse fibroblasts
# Trypanosoma brucei [2] = experiment: DNDI: Inhibition of Human African Trypanosomiasis, SBRI 427, in vitro; format: functional, organism-based
# Trypanosoma brucei [3] = experiment: DNDI: Mean survival time in days (MSD) of mice after intraperitoneal injection of Human African Trypanosomiasis (HAT), EATRO 110, in vivo at 20 mg/kg/day for 4 days.; format: functional, Mus musculus
# [4] = mouse, microsomes, 1 µM
# Description: DNDI: in vitro intrinsic clearance in mouse liver microsomes at a concentration of 1uM
# in vitro [5] = conditions: mouse
# Description: DNDI: half life in mouse liver microsomes at a concentration of 1uM
# [6] = DNDI: Cytotoxicity against L929 mouse fibroblasts, CYTO-SP, 24 hour; format: toxicity, cell-based; conditions: mouse, L929 mouse fibroblasts
# [7] = DNDI: Lipophilicity measured in Chromatographic hydrophobicity index (CHI) assay, pH 7.4; format: physicochemical; conditions: buffer
# [8] = DNDI: Solubility in phosphate buffered saline at pH7.4 measured by nephelometry at room temperature (NEPH-RT); format: physicochemical; conditions: pH 7.4
# in vitro [9] = conditions: human
# Description: DNDI: half life in human liver microsomes at a concentration of 1uM
# in vitro [10] = conditions: human; remark: listed apart in the source
# Description: DNDI: in vitro intrinsic clearance in human liver microsomes at a concentration of 1uM
# [11] = DNDI: half life in human liver microsomes at a concentration of 10uM; format: ADME, Microsome
# [12] = DNDI: in vitro intrinsic clearance in human liver microsomes at a concentration of 10uM; format: ADME, Microsome
# [13] = DNDI: in vitro intrinsic clearance in mouse liver microsomes at a concentration of 10uM; format: ADME, Microsome; conditions: read-out: CLint in vitro
# [14] = DNDI: half life in mouse liver microsomes at a concentration of 10uM; format: ADME, Microsome
# [15] = DNDI: Solubility in phosphate buffered saline at pH7.4 measured by optical density (turbidimetry) at room temperature (OD-RT); format: physicochemical; conditions: pH 7.4
# Trypanosoma cruzi = experiment: DNDI: Inhibition of Chagas Disease parasite Trypanosoma cruzi (Tulahuen LacZ, Clone C4), in vitro.; format: functional, organism-based
# [16] = DNDI: Cytotoxicity against L-6 rat myoblasts from skeletal muscle cells; format: toxicity, cell-based, L6; conditions: L-6 rat skeletal muscle myoblasts
# [17] = system: Trypanosoma brucei rhodesiense; experiment: DNDI: Inhibition of Human African Trypanosomiasis (HAT), STIB 900, in vitro; format: functional, organism-based
# Leishmania donovani = experiment: DNDI: Inhibition of formation of Leishmania donovani (strain MHOM/ET/67/L82) axenic amastigotes, in vitro.; format: functional, organism-based
# Plasmodium falciparum = experiment: DNDI: Inhibition of the malaria parasite Plasmodium falciparum, in vitro; format: functional, organism-based; conditions: K1
# Trypanosoma brucei [18] = experiment: DNDI: Inhibition of Human African Trypanosomiasis, Cross 22, in vitro; format: functional, organism-based
# [19] = Trypanosoma brucei, SBRI 427, read-out: IC50
# [20] = liver microsomes, CLint in vitro
SMILES,chromatographic logD [7],half-life at 10 µM [11] [min],CLint in vitro [12] [µL/min/mg],microsomal CLint at 10 µM [13] [µL/min/mg],half-life at 10 µM [14] [min],solubility kinetic [15] [µM],IC50 (Trypanosoma cruzi) [µg/mL],IC50 [17] [µg/mL],IC50 (Leishmania donovani) [µg/mL],IC50 (Plasmodium falciparum) [µg/mL],IC50 at 72 h [1] [µg/mL],IC50 (Trypanosoma brucei [2]; [19]) [µg/mL],MSD (Trypanosoma brucei [3]) [days],CLint in vitro [4] [µL/min/mg],"half-life at 1 µM (in vitro [5]; liver microsomes, t (1 / 2)) [min]",IC50 at 24 h [6] [µg/mL],solubility kinetic [8] [µM],IC50 [16] [µg/mL],other results
Cc1ccc(/C(=N/O)NC2CCCCC2)c(Oc2ccc(C(C)(C)C)cc2)n1,,,,,,,,,,,4.06,> 5,4.5,98.83,8.61,,,,
CC(C)(C)CN/C(=N\O)c1ccccc1-c1ccccc1,4.67,,,,,,,,,,,2.02,,78,11,> 50,50,,"half-life at 1 µM (in vitro [9]; liver microsomes, t (1 / 2)): 67 min; microsomal CLint at 1 µM (in vitro [10]; [20]): 13 µL/min/mg"
Cc1ccc(CNC(CC(C)C)c2nc(Cc3ccccc3)c(N3CCOCC3)o2)cc1 (centres undefined),,,,,,,,,,,> 10,1.64,4,155,5,,,,
O/N=C(\NC1CCCCC1)c1ccc(F)cc1,4.02,,,,,,,,,,,4.92,,53,16,> 50,> 200,,"half-life at 1 µM (in vitro [9]; liver microsomes, t (1 / 2)): 72 min; microsomal CLint at 1 µM (in vitro [10]; [20]): 12 µL/min/mg"
O/N=C(\NC1CCCCC1)c1cccnc1,2.82,,,,,,,,,,,> 5,,12,,50,> 200,,half-life at 1 µM (in vitro [9]; microsomes): 277 min; microsomal CLint at 1 µM (in vitro [10]; microsomes): 3 µL/min/mg; half-life at 1 µM (in vitro [5]; microsomes): 70 min
CCCCCC(C)NCc1coc(-c2ccc(OCC(C)C)cc2)n1 (centres undefined),> 5.2,,,,,,,,,,1.48,0.5,4,9,94,,3,,
O/N=C(\NC1CCCCC1)c1ccccc1,3.9,289,10,82,35,> 200,> 30,13.6,40.9,> 5,> 10,0.92,,111,,50,,49.7,"half-life at 1 µM (in vitro [5]; microsomes, t (1 / 2)): 8 min"
COc1cccc(/C(=N/O)NC2CCCCC2)c1,3.84,219,13,421,7,100,> 30,14.4,34,4.4,> 10,0.57,4,,,> 50,,63.3,
CC(C)(C)c1ccc(Oc2ncccc2/C(=N/O)Nc2cccc(F)c2)cc1,,,,,,,,,,,3.39,> 5,4,35.83,23.7,,,,
O/N=C(\NC1CCCC1)c1ccccc1-c1ccccc1,4.3,260,11,243,12,50,21.4,18.5,53.1,2.57,> 10,1.17,,,,> 50,,> 90,
CCc1ccc(Oc2ncccc2/C(=N\O)NC2CCCC[C@@H]2N)cc1 (some centres undefined),,,,,,,,,,,> 10,> 5,4,7,116,,,,
CCCCCC(C)NCc1coc(-c2ccc(OC(C)CC)cc2)n1 (centres undefined),> 5.2,,,,,,,,,,1.55,0.68,4,3,257,,3,,
CCc1cccc(N/C(=N/O)c2ccc(OC)cc2)c1,3.76,,,,,,17,34.3,26.6,3.87,> 10,0.76,4,470,2,> 50,> 200,44.7,
CCc1ccc(Oc2ncccc2/C(=N\O)NC2CCCCC2O)cc1 (centres undefined),,,,,,,,,,,> 10,> 5,4,51,17,,,,
CCCCCC(C)NCc1coc(-c2ccc(OC3CCCC3)cc2)n1 (centres undefined),> 5.2,,,,,,,,,,1.38,0.73,4,13,67,,6,,
COc1ccc(CNC(CCc2ccccc2)c2nc(Cc3ccccc3)c(N3CCCCC3)o2)cc1OC (centres undefined),> 5.2,,,,,,,,,,> 10,2.54,4,354,2,,3,,
CCc1ccc(/C(=N/O)NC2CCCCC2)cc1,4.6,,,,,,10.8,8.75,11.3,> 5,> 10,0.98,4,210,4,> 50,50,53.8,
O/N=C(\NC1CCCCC1)c1ccccc1Oc1ccccc1,4.43,64,45,767,4,100,> 30,62.6,73.4,4.41,> 10,0.62,,,,> 50,,> 90,

# The next lines start with results.
chromatographic logD [7],half-life at 10 µM [11] [min],CLint in vitro [12] [µL/min/mg],microsomal CLint at 10 µM [13] [µL/min/mg],half-life at 10 µM [14] [min],solubility kinetic [15] [µM],IC50 (Trypanosoma cruzi) [µg/mL],IC50 [17] [µg/mL],IC50 (Leishmania donovani) [µg/mL],IC50 (Plasmodium falciparum) [µg/mL],SMILES,IC50 at 72 h [1] [µg/mL],IC50 (Trypanosoma brucei [2]; [19]) [µg/mL],MSD (Trypanosoma brucei [3]) [days],CLint in vitro [4] [µL/min/mg],"half-life at 1 µM (in vitro [5]; liver microsomes, t (1 / 2)) [min]",IC50 at 24 h [6] [µg/mL],solubility kinetic [8] [µM],IC50 [16] [µg/mL],other results
4.2,114,25,126,23,12.5,,,,,CCCCCC(C)NCc1ccc(-c2ccccc2)cc1 (centres undefined),< 3.13,0.66,,,,> 50,,,
4.66,,,31,94,12.5,15.7,0.582,13.6,1.83,CCCCCC(C)NCc1coc(-c2ccc(C)cc2)n1 (centres undefined),5.76,1.95,,,,17,,12.6,
4.94,4770,1,5,573,< 1,6.4,0.321,5,1.68,CCCCCC(C)NCc1coc(-c2ccc(-c3ccccc3)cc2)n1 (centres undefined),1.83,0.24,,,,> 50,,6.78,IC50 (Trypanosoma brucei [18]): 0.4 µg/mL; IC50 (Trypanosoma brucei [2]): 0.25 µg/mL and 0.42 µg/mL
4.16,66,44,15,190,6.3,2.9,1.06,12.4,1.77,CCCCCC(C)NCc1coc(-c2ccc(OC)cc2)n1 (centres undefined),> 10,2.13,,,,33,,16,
4.32,127,23,53,54,,,,,,CCCCCC(C)NCc1coc(-c2cccc(OC)c2)n1 (centres undefined),6.95,2.26,,,,18,,,
5.02,,,17,173,6.3,11.3,0.478,18.7,2.6,CCCCCC(C)NCc1coc(-c2ccc(Cl)cc2)n1 (centres undefined),4.88,1.7,,,,17,,10.9,IC50 (Trypanosoma brucei [18]): 1.54 µg/mL; IC50 (Trypanosoma brucei [2]): 0.95 µg/mL and 1.02 µg/mL
5.02,,,28,103,12.5,,,,,CCCCCC(C)NCc1coc(-c2cccc(Cl)c2)n1 (centres undefined),7.27,2.08,,,,14,,,
4.83,,,97,30,6.3,,,,,CCCCCC(C)NCc1coc(-c2cccc(OCC)c2)n1 (centres undefined),6.82,2.13,,,,17,,,
